The experiment concerns the target T1, 20S proteasomes purified from a B-LCL cell line (immunoproteasomes) (Homo sapiens, UniProt P28062+P28065+P40306).
T1 construct: 20S proteasomes were purified from a B-LCL cell line; endogenous in cells; purified after Groettrup et al. 1995
Put plainly: In vitro proteasome mediated cleavage analysis. Format: biochemical. Also on record: key to Intact in fragment / Intact Fragment: intact epitope found in digestion fragments: (+), present; (-), not present; key to Processing C-term: generation by proteasome-mediated digestion of fragments containing the correct C-terminus: (++) fragments present for >5%; (+) present for <5%; (-) no fragments containing the C-term. were found. The conditions noted are these: for Processing C-term: generation by proteasome-mediated digestion of fragments containing the correct C-terminus: 1 h digestion; for Intact Fragment: intact epitope found in digestion fragments: after 1 h digestion; for C-term. generation: generation of C-terminus of the epitope after 1 h digestion; for Intact in fragment: intact epitope found in digestion fragments after 1 h digestion. How it is done:
20S proteasomes were purified from a B-LCL cell line as described by Groettrup et al. (J. Biol. Chem. 270:23808-23815; 1995). This cell type is known to contain immunoproteasomes. High LMP2 and 7 content was confirmed by 2-D immuno-blotting. To assess kinetics, digestions were performed with different incubation periods. Peptides (27 mers, 20 μg) were incubated with 1 μg of purified proteasome at 37° C. for 1 h, 4 h and 24 h in 300 μl proteasome digestion buffer as described (Eggers, et al. 1995. J. Exp. Med. 182:1865). Trifluoroacetic acid was added to stop the digestion and samples were stored at −20° C. before mass spectrometric analysis.
Electrospray ionization mass spectrometry was performed on a hybrid quadrupole time-of-flight mass spectrometer, a Q-TOF (Micromass), equipped with an on-line nanoelectrospray interface with an approximate flow rate of 250 nL/min. Injections were done with a dedicated micro/nano HPLC autosampler, the FAMOS (LC Packings). Digestion solutions were diluted five times in water-methanol-acetic acid (95:5:1, v/v/v), and trapped on the precolumn (MCA-300-05-C8; LC Packings) in water-methanol-acetic acid (95:5:1, v/v/v). Washing of the precolumn was done for 3 min to remove the buffers present in the digests. Subsequently, the trapped analytes were eluted with a steep gradient going from 70% B to 90% B in 10 min, with a flow of 250 nl/min (A: water-methanol-acetic acid (95:5:1, v/v/v); B: water-methanol-acetic acid (10:90:1, v/v/v)). This low elution rate allows for a few additional MS/MS experiments if necessary during the same elution. Mass spectra were recorded from mass 50-2000 Da every second. The resolution allows direct determination of the monoisotopic mass, also from multiple charged ions. The peaks in the mass spectrum were searched in the digested precursor peptide using the Biolynx/proteins software (Micromass). The intensity of the peaks in the mass spectra was used to establish the relative amounts of peptides generated by proteasome digestion.

With `CC(C)C[C@H](NC(=O)[C@H](CCC(=O)O)NC(=O)[C@H](CCCNC(=N)N)NC(=O)[C@H](CC(C)C)NC(=O)[C@H](CCCNC(=N)N)NC(=O)[C@H](C)NC(=O)[C@H](Cc1c[nH]cn1)NC(=O)[C@H](CC(C)C)NC(=O)[C@H](Cc1ccc(O)cc1)NC(=O)[C@H](C)N)C(=O)O`, the “Processing C-term: generation by proteasome-mediated digestion of fragments containing the correct C-terminus” value is listed as “+ ((+) present for <5%)”, the “Intact Fragment: intact epitope found in digestion fragments” value (“Intact Fragment: intact epitope found” for short) is recorded as “+”, the C-term. generation entry is recorded as “+ (low abundant (+) present for <5%)” and the Intact in fragment result is “+”.
For `CSCC[C@H](NC(=O)[C@H](CO)NC(=O)[C@@H]1CCCN1C(=O)[C@H](CCCNC(=N)N)NC(=O)CNC(=O)[C@H](CC(C)C)NC(=O)[C@H](CCC(=O)O)NC(=O)[C@H](CS)NC(=O)[C@H](CC(C)C)NC(=O)[C@@H](N)CC(C)C)C(=O)O`, the “Processing C-term: generation by proteasome-mediated digestion of fragments containing the correct C-terminus” value is “-” and the “Intact Fragment: intact epitope found” value is “-”.
With `CC(C)C[C@H](NC(=O)[C@H](CCCNC(=N)N)NC(=O)[C@H](C)NC(=O)[C@H](Cc1c[nH]cn1)NC(=O)[C@H](CC(C)C)NC(=O)[C@H](Cc1ccc(O)cc1)NC(=O)[C@H](C)NC(=O)[C@H](CC(C)C)NC(=O)[C@@H](N)CCCNC(=N)N)C(=O)O`, the “Processing C-term: generation by proteasome-mediated digestion of fragments containing the correct C-terminus” value is on record as “++ ((++) fragments present for >5%)”, the “Intact Fragment: intact epitope found” value is on record as “+”, the C-term. generation entry is recorded as “++ (abundant (++) present for >5%)” and the Intact in fragment entry was “+”.
For the compound `CC(C)C[C@H](NC(=O)[C@H](CCC(=O)O)NC(=O)[C@H](CS)NC(=O)[C@H](CC(C)C)NC(=O)[C@H](CC(C)C)NC(=O)[C@H](CCC(=O)O)NC(=O)[C@H](CCCNC(=N)N)NC(=O)[C@H](CC(C)C)NC(=O)[C@@H](N)CCCNC(=N)N)C(=O)O`, the “Processing C-term: generation by proteasome-mediated digestion of fragments containing the correct C-terminus” value is recorded as “-” and the “Intact Fragment: intact epitope found” value was “-”.
As to `CC(C)C[C@H](NC(=O)[C@H](CO)NC(=O)[C@H](CCC(N)=O)NC(=O)CNC(=O)[C@H](C)NC(=O)[C@H](CC(C)C)NC(=O)[C@H](CCC(=O)O)NC(=O)[C@@H](NC(=O)[C@H](CC(C)C)NC(=O)[C@@H](N)CCCNC(=N)N)C(C)C)C(=O)O`, the “Processing C-term: generation by proteasome-mediated digestion of fragments containing the correct C-terminus” value is recorded as “-” and the “Intact Fragment: intact epitope found” value is reported as “-”.
Consider `CC(C)C[C@H](NC(=O)[C@H](CCCNC(=N)N)NC(=O)[C@H](CCC(=O)O)NC(=O)[C@H](CC(C)C)NC(=O)[C@H](Cc1c[nH]cn1)NC(=O)[C@H](CC(C)C)NC(=O)[C@@H](N)[C@@H](C)O)C(=O)N[C@@H](C)C(=O)N[C@@H](Cc1ccc(O)cc1)C(=O)O`, for which the “Processing C-term: generation by proteasome-mediated digestion of fragments containing the correct C-terminus” value is “-” and the “Intact Fragment: intact epitope found” value is “-”.
`CC(C)C[C@H](NC(=O)[C@H](Cc1ccc(O)cc1)NC(=O)[C@H](C)NC(=O)[C@H](CC(C)C)NC(=O)[C@H](CCCNC(=N)N)NC(=O)[C@H](CCC(=O)O)NC(=O)[C@H](CC(C)C)NC(=O)[C@H](Cc1c[nH]cn1)NC(=O)[C@H](CC(C)C)NC(=O)[C@@H](N)[C@@H](C)O)C(=O)O`: the “Processing C-term: generation by proteasome-mediated digestion of fragments containing the correct C-terminus” value is reported as “-” and the “Intact Fragment: intact epitope found” value was “-”.
As to `CC(C)C[C@H](NC(=O)[C@H](CC(C)C)NC(=O)[C@H](CCC(=O)O)NC(=O)[C@H](CCCNC(=N)N)NC(=O)[C@H](CC(C)C)NC(=O)[C@H](CCCNC(=N)N)NC(=O)[C@H](C)NC(=O)[C@H](Cc1c[nH]cn1)NC(=O)[C@H](CC(C)C)NC(=O)[C@@H](N)Cc1ccc(O)cc1)C(=O)O`, the “Processing C-term: generation by proteasome-mediated digestion of fragments containing the correct C-terminus” value is listed as “+ ((+) present for <5%)”, the “Intact Fragment: intact epitope found” value is on record as “+”, the C-term. generation entry is recorded as “+ (low abundant (+) present for <5%)” and the Intact in fragment entry is on record as “+”.

The values are drawn from patent US10450356B2, “PRAME derived peptides and immunogenic compositions comprising these” (Academisch Ziekenhuis Leiden H.O.D.N. LUMC, priority 2007, dated 2019).
